Source: paper PMC7656562 (Journal of medicinal chemistry, 2019)
Where two headings read alike, the source gives them in different places.

Experiments:
hCB1 [1] = biological target: T1, hCB1 (Homo sapiens, UniProt P21554); experiment: cell-based
[2] = mouse, 0.3 mg/kg PO
[3] = rat, 1 mg/kg PO
hCB1 [4] = biological target: T1, hCB1; settings: calcium assay, basal signaling
[5] = test system: SafetyScreen44 Panel targets
[6] = test system: alcohol-induced liver steatosis; experiment: Alcohol induced hepatic steatosis study; type: in vivo, mouse; settings: female C57BL6 mice on ethanol diet; 0.03, 0.1, 0.3 mg/kg once daily oral gavage, last 2 weeks; effect at the two higher doses; p < 0.05 versus ethanol + vehicle
hCB1 [7] = biological target: T1, hCB1; settings: ratio Ki hCB2/Ki hCB1

T1 sequence (P21554 whole entry): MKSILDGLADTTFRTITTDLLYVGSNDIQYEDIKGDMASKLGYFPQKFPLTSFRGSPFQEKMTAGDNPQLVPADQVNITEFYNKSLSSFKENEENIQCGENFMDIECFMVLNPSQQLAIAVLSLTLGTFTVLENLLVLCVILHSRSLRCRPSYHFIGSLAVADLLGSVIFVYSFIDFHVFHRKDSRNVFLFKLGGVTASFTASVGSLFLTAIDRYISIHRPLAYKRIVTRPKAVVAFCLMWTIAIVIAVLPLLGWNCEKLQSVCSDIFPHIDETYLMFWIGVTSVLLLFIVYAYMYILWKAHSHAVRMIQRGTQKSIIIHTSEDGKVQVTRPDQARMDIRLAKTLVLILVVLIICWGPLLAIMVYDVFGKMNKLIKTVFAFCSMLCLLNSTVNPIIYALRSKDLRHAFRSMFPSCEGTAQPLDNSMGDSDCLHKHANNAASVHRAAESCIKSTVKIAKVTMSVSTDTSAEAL

With `CCCN(CC(F)(F)F)C(=O)NC1CCN(c2ncnc3c2nc(-c2ccccc2Cl)n3-c2ccc(Cl)cc2)CC1` [Compound 12, 1-{1-[8-(2-Chlorophenyl)-9-(4-chlorophenyl)-9H-purin-6-yl]-piperidin-4-yl}-3-propyl-3-(2,2,2-trifluoroethyl)urea] the Kb (hCB1 [1]) was 1.2 ± 0.6 nM.

`CC(C)(C)CNC(=O)NC1CCN(c2ncnc3c2nc(-c2ccccc2Cl)n3-c2ccc(Cl)cc2)CC1` [Compound 14, 1-{1-[8-(2-Chlorophenyl)-9-(4-chlorophenyl)-9H-purin-6-yl]-piperidin-4-yl}-3-(2,2-dimethylpropyl)urea] showed a Kb (hCB1 [1]) of 270 ± 130 nM.

For `O=C(NC1CCN(c2ncnc3c2nc(-c2ccccc2Cl)n3-c2ccc(Cl)cc2)CC1)N1CCCC1` [Compound 16, N-{1-[8-(2-Chlorophenyl)-9-(4-chlorophenyl)-9H-purin-6-yl]-piperidin-4-yl}pyrrolidine-1-carboxamide], the Kb (hCB1 [1]) was 190 ± 110 nM.

Molecule `O=C(NC1CCN(c2ncnc3c2nc(-c2ccccc2Cl)n3-c2ccc(Cl)cc2)CC1)N1CCCCC1` [Compound 17, N-{1-[8-(2-Chlorophenyl)-9-(4-chlorophenyl)-9H-purin-6-yl]-piperidin-4-yl}piperidine-1-carboxamide] has a Kb (hCB1 [1]) of 7 ± 4 nM.

Molecule `O=C(NC1CCN(c2ncnc3c2nc(-c2ccccc2Cl)n3-c2ccc(Cl)cc2)CC1)N1CCOCC1` [Compound 18, N-{1-[8-(2-Chlorophenyl)-9-(4-chlorophenyl)-9H-purin-6-yl]-piperidin-4-yl}morpholine-4-carboxamide] has a Kb (hCB1 [1]) of 340 ± 60 nM.

Molecule `O=C(NC1CCN(c2ncnc3c2nc(-c2ccccc2Cl)n3-c2ccc(Cl)cc2)CC1)NC1(C(F)(F)F)CCCC1` [Compound 20, 1-{1-[8-(2-Chlorophenyl)-9-(4-chlorophenyl)-9H-purin-6-yl]-piperidin-4-yl}-3-[1-(trifluoromethyl)cyclopentyl]urea] has a Kb (hCB1 [1]) of 12 ± 8 nM.

For `O=C(NC1CCCCC1)NC1CCN(c2ncnc3c2nc(-c2ccccc2Cl)n3-c2ccc(Cl)cc2)CC1` [Compound 21, 3-{1-[8-(2-Chlorophenyl)-9-(4-chlorophenyl)-9H-purin-6-yl]-piperidin-4-yl}-1-cyclohexylurea], the Kb (hCB1 [1]) was 35 ± 10 nM.

`CC1(NC(=O)NC2CCN(c3ncnc4c3nc(-c3ccccc3Cl)n4-c3ccc(Cl)cc3)CC2)CCC(F)(F)CC1` [Compound 23, 3-{1-[8-(2-Chlorophenyl)-9-(4-chlorophenyl)-9H-purin-6-yl]-piperidin-4-yl}-1-(4,4-difluoro-1-methylcyclohexyl)urea] gave a Kb (hCB1 [1]) of 0.4 ± 0.3 nM.

Molecule `O=C(NCC1CCCCC1)NC1CCN(c2ncnc3c2nc(-c2ccccc2Cl)n3-c2ccc(Cl)cc2)CC1` [Compound 25, 3-{1-[8-(2-Chlorophenyl)-9-(4-chlorophenyl)-9H-purin-6-yl]-piperidin-4-yl}-1-(cyclohexylmethyl)urea] has a Kb (hCB1 [1]) of 5 ± 3 nM.

`O=C(NCC1CCC(F)(F)CC1)NC1CCN(c2ncnc3c2nc(-c2ccccc2Cl)n3-c2ccc(Cl)cc2)CC1` [Compound 26, 3-{1-[8-(2-Chlorophenyl)-9-(4-chlorophenyl)-9H-purin-6-yl]-piperidin-4-yl}-1-[(4,4-difluorocyclohexyl)methyl]urea] gave a Kb (hCB1 [1]) of 28 ± 15 nM.

For `CN1CCC(CNC(=O)NC2CCN(c3ncnc4c3nc(-c3ccccc3Cl)n4-c3ccc(Cl)cc3)CC2)CC1` [Compound 27, 3-{1-[8-(2-Chlorophenyl)-9-(4-chlorophenyl)-9H-purin-6-yl]-piperidin-4-yl}-1-[(1-methylpiperidin-4-yl)methyl]urea], the Kb (hCB1 [1]) was 25000 ± 12000 nM.

Work on `O=C(Nc1ccccn1)NC1CCN(c2ncnc3c2nc(-c2ccccc2Cl)n3-c2ccc(Cl)cc2)CC1` [Compound 31, 3-{1-[8-(2-Chlorophenyl)-9-(4-chlorophenyl)-9H-purin-6-yl]-piperidin-4-yl}-1-(pyridin-2-yl)urea] yielded a Kb (hCB1 [1]) of 150 ± 50 nM.

For `O=C(Nc1ccc(F)cc1F)NC1CCN(c2ncnc3c2nc(-c2ccccc2Cl)n3-c2ccc(Cl)cc2)CC1` [Compound 33, 3-{1-[8-(2-Chlorophenyl)-9-(4-chlorophenyl)-9H-purin-6-yl]-piperidin-4-yl}-1-(2,4-difluorophenyl)urea], the “plasma HL” value [2] was 12 h, the “time of plasma max. conc.” value [2] was 1 h and the “plasma HL” value [3] was 12 h. The “neutral antagonist or inverse agonist of hCB1” value (hCB1 [4]) was “inverse agonists”.

In the case of `O=C(Nc1ccc(F)c(F)c1)NC1CCN(c2ncnc3c2nc(-c2ccccc2Cl)n3-c2ccc(Cl)cc2)CC1` [Compound 34, 3-{1-[8-(2-Chlorophenyl)-9-(4-chlorophenyl)-9H-purin-6-yl]-piperidin-4-yl}-1-(3,4-difluorophenyl)urea], the Kb (hCB1 [1]) is reported as 290 ± 80 nM.

For `O=C(Nc1cccnc1C(F)(F)F)NC1CCN(c2ncnc3c2nc(-c2ccccc2Cl)n3-c2ccc(Cl)cc2)CC1` [Compound 36, 3-{1-[8-(2-Chlorophenyl)-9-(4-chlorophenyl)-9H-purin-6-yl]-piperidin-4-yl}-1-[2-(trifluoromethyl)pyridin-3-yl]urea], the Kb (hCB1 [1]) was 160 ± 60 nM.

In the case of `O=C(Nc1ccc(OC(F)F)nc1)NC1CCN(c2ncnc3c2nc(-c2ccccc2Cl)n3-c2ccc(Cl)cc2)CC1` [Compound 38, 3-{1-[8-(2-Chlorophenyl)-9-(4-chlorophenyl)-9H-purin-6-yl]-piperidin-4-yl}-1-[6-(difluoromethoxy)pyridin-3-yl]urea], the “EC50 or IC50 on all targets tested” value [5] is reported as greater than 10000 nM, the “hepatic lipid droplets (Oil Red O staining, ImageJ quantification)” value [6] is reported as “statistically significant reduction of liver steatosis” and the “plasma HL” value [2] is reported as 11 h. For the same molecule, the “neutral antagonist or inverse agonist of hCB1” value (hCB1 [4]) was “inverse agonists”.

`O=C(Nc1cc(C(F)(F)F)[nH]n1)NC1CCN(c2ncnc3c2nc(-c2ccccc2Cl)n3-c2ccc(Cl)cc2)CC1` [Compound 39, 1-{1-[8-(2-Chlorophenyl)-9-(4-chlorophenyl)-9H-purin-6-yl]-piperidin-4-yl}-3-[5-(trifluoromethyl)-1H-pyrazol-3-yl]urea] gave a Kb (hCB1 [1]) of 270 ± 60 nM.

Work on `Cn1cc(NC(=O)NC2CCN(c3ncnc4c3nc(-c3ccccc3Cl)n4-c3ccc(Cl)cc3)CC2)cn1` [Compound 40, 1-{1-[8-(2-Chlorophenyl)-9-(4-chlorophenyl)-9H-purin-6-yl]-piperidin-4-yl}-3-(1-methyl-1H-pyrazol-4-yl)urea] yielded a Kb (hCB1 [1]) of 28000 ± 8000 nM.

For `O=C(NCC1CCCCC1)NC1CCN(c2ncnc3c2nc(-c2ccccc2Cl)n3-c2ccc(C(F)(F)F)nc2)CC1` [Compound 42, 3-{1-[8-(2-Chlorophenyl)-9-[6-(trifluoromethyl)pyridin-3-yl]-9H-purin-6-yl]piperidin-4-yl}-1-(cyclohexylmethyl)urea], the Kb (hCB1 [1]) was 76 ± 34 nM.

For `O=C(Nc1ccccc1F)NC1CCN(c2ncnc3c2nc(-c2ccccc2Cl)n3-c2ccc(F)cc2)CC1` [Compound 44, 3-{1-[8-(2-Chlorophenyl)-9-(4-fluorophenyl)-9H-purin-6-yl]-piperidin-4-yl}-1-(2-fluorophenyl)urea], the Kb (hCB1 [1]) was 3800 ± 1500 nM.

For `CC1(NC(=O)NC2CCCCC2)CCN(c2ncnc3c2nc(-c2ccccc2Cl)n3-c2ccc(Cl)cc2)CC1` [Compound 47, 3-{1-[8-(2-Chlorophenyl)-9-(4-chlorophenyl)-9H-purin-6-yl]-4-methylpiperidin-4-yl}-1-cyclohexylurea], the “Selectivity Ki CB2/CB1” value (hCB1 [7]) was greater than 769 and the Kb (hCB1 [1]) was 7 ± 5 nM.

`CC1(NC(=O)NC2CCC(F)(F)CC2)CCN(c2ncnc3c2nc(-c2ccccc2Cl)n3-c2ccc(Cl)cc2)CC1` [Compound 48, 3-{1-[8-(2-Chlorophenyl)-9-(4-chlorophenyl)-9H-purin-6-yl]-4-methylpiperidin-4-yl}-1-(4,4-difluorocyclohexyl)urea] gave a Kb (hCB1 [1]) of 2 ± 1 nM.

`CC1(NC(=O)NCc2ccccc2F)CCN(c2ncnc3c2nc(-c2ccccc2Cl)n3-c2ccc(Cl)cc2)CC1` [Compound 49, 3-{1-[8-(2-Chlorophenyl)-9-(4-chlorophenyl)-9H-purin-6-yl]-4-methylpiperidin-4-yl}-1-[(2-fluorophenyl)methyl]urea] showed a Kb (hCB1 [1]) of 14 ± 7 nM.

`CC1(NC(=O)Nc2ccccc2F)CCN(c2ncnc3c2nc(-c2ccccc2Cl)n3-c2ccc(Cl)cc2)CC1` [Compound 50, 3-{1-[8-(2-Chlorophenyl)-9-(4-chlorophenyl)-9H-purin-6-yl]-4-methylpiperidin-4-yl}-1-(2-fluorophenyl)urea] showed a Kb (hCB1 [1]) of 1.6 ± 1.1 nM.

Work on `CC1(NC(=O)Nc2ccc(F)cc2F)CCN(c2ncnc3c2nc(-c2ccccc2Cl)n3-c2ccc(Cl)cc2)CC1` [Compound 51, 3-{1-[8-(2-Chlorophenyl)-9-(4-chlorophenyl)-9H-purin-6-yl]-4-methylpiperidin-4-yl}-1-(2,4-difluorophenyl)urea] yielded a Kb (hCB1 [1]) of 9 ± 4 nM.

For `CC1(NC(=O)Nc2ccc(OC(F)F)nc2)CCN(c2ncnc3c2nc(-c2ccccc2Cl)n3-c2ccc(Cl)cc2)CC1` [Compound 52, 3-{1-[8-(2-Chlorophenyl)-9-(4-chlorophenyl)-9H-purin-6-yl]-4-methylpiperidin-4-yl}-1-[6-(difluoromethoxy)pyridin-3-yl]urea], the Kb (hCB1 [1]) was 46 ± 23 nM.

`CC1(NS(=O)(=O)NC2CCCCC2)CCN(c2ncnc3c2nc(-c2ccccc2Cl)n3-c2ccc(Cl)cc2)CC1` [Compound 54, N-Cyclohexyl({1-[8-(2-chlorophenyl)-9-(4-chlorophenyl)-9H-purin-6-yl]-4-methylpiperidin-4-yl}amino)sulfonamide] showed a Kb (hCB1 [1]) of 17 ± 3 nM.
